Data: patent US11498923B2 (Merck Sharp & Dohme Corp., priority 2017, dated 2022)
Structures can show the parent of a compound that is named as a salt.

These molecules were tested against T1, human A2a receptor (Homo sapiens, UniProt P29274) (assay: A2a receptor competition binding assay (Scintillation Proximity)). Details: A2a Ki, membranes from HEK293 cells expressing human A2a receptor; 0.5 nM tritiated ligand; Cheng-Prusoff.
T1 construct: purchased Perkin-Elmer RBHA2AM400UA; host or cells: HEK293 cells, used as a membrane preparation
T1 sequence (P29274 whole entry): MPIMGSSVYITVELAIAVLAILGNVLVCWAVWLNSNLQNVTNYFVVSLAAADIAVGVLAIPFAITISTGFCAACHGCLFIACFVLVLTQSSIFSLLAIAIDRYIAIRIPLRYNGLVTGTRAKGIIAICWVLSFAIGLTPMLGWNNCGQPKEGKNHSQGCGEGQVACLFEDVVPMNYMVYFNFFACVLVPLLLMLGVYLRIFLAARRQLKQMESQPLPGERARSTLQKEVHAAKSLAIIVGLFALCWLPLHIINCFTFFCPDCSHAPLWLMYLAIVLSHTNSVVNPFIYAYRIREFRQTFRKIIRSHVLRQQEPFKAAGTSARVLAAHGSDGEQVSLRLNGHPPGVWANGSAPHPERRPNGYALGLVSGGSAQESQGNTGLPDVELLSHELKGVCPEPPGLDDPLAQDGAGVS
Description: Binding affinities of compounds of the invention for the human A2a receptor were determined in a competition binding assay using Scintillation Proximity technology. Thus, 0.3 μg of membranes from HEK293 cells expressing the human A2a receptor were incubated with a compound of the invention at concentrations ranging from 3000 nM to 0.15 nM in a reaction mixture containing also 0.5 nM of a tritiated form of 5-amino-7-[2-phenethyl]-2-(furan-2-yl)-7H-pyrazolo[4,3-e][1,2,4]triazolo[1,5-c]pyrimidine (the tritiated compound) and 100 μg of wheat germ agglutin-coated yttrium silicate SPA beads for one hour at room temperature with agitation. The beads were then allowed to settle to the bottom of the wells for 1 hr, after which the membrane-associated radioactivity was determined by scintillation counting in a TopCount microplate reader. Ki values were determined using the Cheng-Prusoff equation.
Summary of Materials and Methods Used in A2a Activity Determination:
HEK293 cells expressing the human, rat, dog or monkey adenosine 2a receptor (Purchased from Perkin-Elmer #RBHA2AM400UA).
The Tritiated compound was prepared according to published methods.
Wheat germ agglutinin-coated yttrium silicate SPA beads (GE Healthcare #RPNQ0023). Dilute to 25 mg/ml in assay buffer.
Assay Buffer was prepared using Dulbecco's calcium and magnesium free phosphate buffered saline+10 mMMgCl2
Adenosine deaminase from calf intestine, 10 mg/2 ml (Roche #10 102 105 001).
A2a antagonist standard (9-chloro-1-(2-furanyl)-[1,2,4]triazolo1,5-c]quinazolin-5-amine from Tocris Bioscience)
Make eight 1:3 serial dilutions in 100% DMSO from a 3 mM compound stock
Transfer 50 nl of compound into a 384-well OptiPlate (Perkin Elmer).
Typically, final concentrations of compound used in the assay ranged from 3000 nM to 0.152 nM.
Dilute a solution of the Tritiated compound to 1.25 nM in assay buffer. This is a 2.5× solution. The final concentration in the assay is 0.5 nM. Calculate the concentration by counting two 5 μl aliquots.
Use 0.25 ug of membrane/well. Dilute membranes to 9.7 μg/ml in assay buffer. Treat with 20 ug/ml adenosine deaminase (ADA) for 15 minutes at room temperature to degrade endogenous adenosine.
Use 100 μg/well wheat germ agglutinin-coated yttrium silicate SPA beads.
Mix ADA-treated membranes and SPA beads together for 30 min prior to assay.
To the Perkin-Elmer Optiplate-384 containing the compound titration add 20 μl of 2.5× solution of the Tritiated compound and 30 μl of the membrane-bead mixture. Incubate for one hour at room temperature with agitation.
Include total binding (assay buffer+1% DMSO) and non-specific binding (CGS15943, 1 μM) wells.
Allow the beads to settle for one hour.
A curve fitting program (i.e., Prism, Activity Base, Chemcart) is used to determine the EC50. The Ki value is calculated using the Cheng-Prusoff equation. Ki=EC50/(1+(radioligand concentration/Kd))

First: COc1cccc2c1nc(N)n1cc(C(=O)N3C4CCC3COC4)nc21 [Ex-224, (5-amino-7-methoxyimidazo[1,2-c]quinazolin-2-yl)(3-oxa-8-azabicyclo[3.2.1]octan-8-yl)methanone]
Second: COc1cccc2c1nc(N)n1cc(C(=O)N3CCC4(CC3)OCCO4)nc21 [Ex-188, (5-amino-7-methoxyimidazo[1,2-c]quinazolin-2-yl)(1,4-dioxa-8-azaspiro[4.5]decan-8-yl)methanone]
The Ki of the first is 6.6-fold lower: 8.2 nM for the first, 54 nM for the second.

Same assay, conditions: membranes from HEK293 cells expressing human A2a receptor; 0.5 nM tritiated ligand; Cheng-Prusoff; read-out: A2a Ki

Going from `CCCN1CCC2(CCCN(C(=O)c3cn4c(N)nc5c(F)cccc5c4n3)C2)C1` (centres unmarked) [Ex-276, (5-amino-7-fluoroimidazo[1,2-c]quinazolin-2-yl)(2-propyl-2,7-diazaspiro[4.5]decan-7-yl)methanone] to `CC(C)(C)OC(=O)N1CCC2(CCCN(C(=O)c3cn4c(N)nc5c(F)cccc5c4n3)C2)C1` (centres unmarked) [Ex-260, tert-butyl 7-(5-amino-7-fluoroimidazo[1,2-c]quinazoline-2-carbonyl)-2,7-diazaspiro[4.5]decane-2-carboxylate], the Ki falls from 130 nM to 15 nM (8.7-fold). The second binds more tightly here.

Going from `COc1cccc2c1nc(N)n1cc(C(=O)N3CC[C@H](F)C3)nc21` [Ex-215, (S)-(5-amino-7-methoxyimidazo[1,2-c]quinazolin-2-yl)(3-fluoropyrrolidin-1-yl)methanone] to `COc1cccc2c1nc(N)n1cc(C(=O)N3CCCC(F)C3)nc21` (centres unmarked) [Ex-171, (5-amino-7-methoxyimidazo[1,2-c]quinazolin-2-yl)(3-fluoropiperidin-1-yl)methanone], the Ki rises from 7.4 nM to 20 nM (2.7-fold).

`COc1cccc2c1nc(N)n1cc(C(=O)N3CCCC(OC)C3)nc21` (centres unmarked) [Ex-169, (5-amino-7-methoxyimidazo[1,2-c]quinazolin-2-yl)(3-methoxypiperidin-1-yl)methanone] and `COc1cccc2c1nc(N)n1cc(C(=O)N3CCCOCC3)nc21` [Ex-177, (5-amino-7-methoxyimidazo[1,2-c]quinazolin-2-yl)(1,4-oxazepan-4-yl)methanone] are within 1.5-fold of each other in Ki: 34 nM for the first, 49 nM for the second.

Compared with `COc1cccc2c1nc(N)n1cc(Cc3c(O)cccc3F)nc21` [Ex-31, 2-((5-amino-7-methoxyimidazo[1,2-c]quinazolin-2-yl)methyl)-3-fluorophenol], `COc1cccc2c1nc(N)n1cc(Cc3ccc(F)cc3)nc21` [Ex-21, 2-(4-fluorobenzyl)-7-methoxyimidazo[1,2-c]quinazolin-5-amine] is 2.6-fold lower in Ki: 2.1 nM for the first, 0.8 nM for the second.

`COc1cccc2c1nc(N)n1cc(Cc3ccc(N4CCN(C(C)=O)CC4)nc3)nc21` [Ex-45, 1-(4-(5-((5-amino-7-methoxyimidazo[1,2-c]quinazolin-2-yl)methyl)pyridin-2-yl)piperazin-1-yl)ethan-1-one] and `COc1cccc2c1nc(N)n1cc(Cc3cccnc3N3CCCC3)nc21` [Ex-49, 7-methoxy-2-((2-(pyrrolidin-1-yl)pyridin-3-yl)methyl)imidazo[1,2-c]quinazolin-5-amine] are within 1.5-fold of each other in Ki: 4.6 nM for the first, 6.2 nM for the second.

First: CN(Cc1cccc2cccnc12)C(=O)c1cn2c(N)nc3c(F)cccc3c2n1 [Ex-162, 5-amino-7-fluoro-N-methyl-N-(quinolin-8-ylmethyl)imidazo[1,2-c]quinazoline-2-carboxamide]
Second: CN(Cc1cccc2cccnc12)C(=O)c1cn2c(N)nc3ccccc3c2n1 [Ex-160, 5-amino-N-methyl-N-(quinolin-8-ylmethyl)imidazo[1,2-c]quinazoline-2-carboxamide]
The Ki of the first is 2.7-fold lower: 29.7 nM for the first, 80.6 nM for the second. The first binds more tightly here.

First: Nc1nc2c(F)cccc2c2nc(CN3CCc4cc(NC(=O)c5ccccn5)ccc4C3)cn12 [Ex-127, N-(2-((5-amino-7-fluoroimidazo[1,2-c]quinazolin-2-yl)methyl)-1,2,3,4-tetrahydroisoquinolin-6-yl)picolinamide]
Second: Nc1nc2c(F)cccc2c2nc(Cc3cccc(C(=O)Nc4ccccn4)c3)cn12 [Ex-85, 3-((5-amino-7-fluoroimidazo[1,2-c]quinazolin-2-yl)methyl)-N-(pyridin-2-yl)benzamide]
The Ki of the first is 6.6-fold higher: 64 nM for the first, 9.7 nM for the second.

Going from `Cc1cc(Cc2cn3c(N)nc4c(-c5c(C)noc5C)cccc4c3n2)ccn1` [Ex-155, 7-(3,5-dimethylisoxazol-4-yl)-2-((2-methylpyridin-4-yl)methyl)imidazo[1,2-c]quinazolin-5-amine] to `Cc1noc(C)c1-c1cccc2c1nc(N)n1cc(Cc3ccccc3)nc21` [Ex-152], the Ki falls from 130 nM to 35 nM (3.7-fold).

Going from `Nc1nc2c(F)cccc2c2nc(Cc3ccccc3CN3CCC(N4CCOCC4)CC3)cn12` [Ex-73] to `Nc1nc2c(F)cccc2c2nc(CN3CCN(Cc4ccccc4)CC3)cn12` [Ex-111, 2-((4-benzylpiperazin-1-yl)methyl)-7-fluoroimidazo[1,2-c]quinazolin-5-amine], the Ki rises from 4.2 nM to 160 nM (38-fold). The first binds more tightly here.

Going from `Nc1nc2cccc(F)c2c2nc(Cc3ccccc3)cn12` [Ex-09, 2-benzyl-10-fluoroimidazo[1,2-c]quinazolin-5-amine] to `Nc1nc2c(F)cccc2c2nc(Cc3cccc4cccnc34)cn12` [Ex-32, 7-fluoro-2-(quinolin-8-ylmethyl)imidazo[1,2-c]quinazolin-5-amine], the Ki falls from 6.3 nM to 2 nM (3.1-fold). The second binds more tightly here.

First: Cn1c(NC(=O)c2ccc(Cc3cn4c(N)nc5c(F)cccc5c4n3)cc2)nc2ccccc21 [Ex-86, 5-amino-7-fluoro-2-(4-((1-methyl-1H-benzo[d]imidazol-2-yl)carbamoyl)benzyl)imidazo[1,2-c]quinazolin-6-ium formate]
Second: Nc1nc2c(F)cccc2c2nc(C(=O)NCc3ccccn3)cn12 [Ex-298, 5-amino-7-fluoro-N-(pyridin-2-ylmethyl)imidazo[1,2-c]quinazoline-2-carboxamide]
The Ki of the first is 3.1-fold higher: 44 nM for the first, 14 nM for the second. The second binds more tightly here.

First: CCN1CCN(Cc2cn3c(N)nc4c(F)cccc4c3n2)CC1 [Ex-112, 2-((4-ethylpiperazin-1-yl)methyl)-7-fluoroimidazo[1,2-c]quinazolin-5-amine]
Second: COc1ccc(CN2CCC(Cc3cn4c(N)nc5c(F)cccc5c4n3)CC2)cc1 [Ex-309, 7-fluoro-2-((1-(4-methoxybenzyl)-piperidin-4-yl)-methyl)imidazo-[1,2-c]quinazolin-5-amine]
The Ki of the first is 3.5-fold higher: 520 nM for the first, 150 nM for the second. The second binds more tightly here.

Going from `Nc1nc2c(F)cccc2c2nc(Cn3cc(-c4ccc(OC(F)(F)F)cc4)nn3)cn12` [Ex-95, 7-fluoro-2-((4-(4-(trifluoromethoxy)-phenyl)-1H-1,2,3-triazol-1-yl)methyl)-imidazo[1,2-c]-quinazolin-5-amine] to `Nc1nc2c(F)cccc2c2nc(Cc3cc(F)ccc3-c3cncnc3)cn12` [Ex-81, 7-fluoro-2-(5-fluoro-2-(pyrimidin-5-yl)benzyl)imidazo[1,2-c]quinazolin-5-amine], the Ki rises from 6.8 nM to 14 nM (2.1-fold). The first binds more tightly here.

Compared with `COc1cccc2c1nc(N)n1cc(Cc3ccccc3CN3CCN(c4ccccc4)CC3)nc21` [Ex-67], `COc1cccc2c1nc(N)n1cc(CN3CCc4cccnc4C3)nc21` [Ex-120, 2-((5,8-dihydro-1,7-naphthyridin-7(6H)-yl)methyl)-7-methoxyimidazo[1,2-c]quinazolin-5-amine] is 1.9-fold higher in Ki: 2.2 nM for the first, 4.2 nM for the second.

Compared with `COc1cccc2c1nc(N)n1cc(C(=O)N3C[C@@H](C)O[C@@H](C)C3)nc21` [Ex-180, (5-amino-7-methoxyimidazo[1,2-c]quinazolin-2-yl)((2R,6S)-2,6-dimethylmorpholino) methanone], `COc1cccc2c1nc(N)n1cc(C(=O)N3CCC4(CCC(=O)O4)CC3)nc21` [Ex-227, 8-(5-amino-7-methoxyimidazo[1,2-c]quinazoline-2-carbonyl)-1-oxa-8-azaspiro[4.5]decan-2-one] is 4.5-fold higher in Ki: 53 nM for the first, 240 nM for the second. The first binds more tightly here.

`Cc1cccc(C(=O)N2CCC(Cc3cn4c(N)nc5c(F)cccc5c4n3)CC2)n1` [Ex-324, (4-((5-amino-7-fluoroimidazo[1,2-c]quinazolin-2-yl)-methyl)piperidin-1-yl)(6-methylpyridin-2-yl)methanone] and `Nc1nc2c(F)cccc2c2nc(C(=O)N3CCc4cc(-c5cncnc5)ccc4C3)cn12` [Ex-287, (5-amino-7-fluoroimidazo[1,2-c]quinazolin-2-yl)(6-(pyrimidin-5-yl)-3,4-dihydroisoquinolin-2(1H)-yl)methanone] are within 1.5-fold of each other in Ki: 44 nM for the first, 35 nM for the second.

`N#Cc1ccc(N2CCc3c(Cc4cn5c(N)nc6c(F)cccc6c5n4)cccc3C2)nc1` [Ex-54, 6-(5-((5-amino-7-fluoroimidazo[1,2-c]quinazolin-2-yl)methyl)-3,4-dihydroisoquinolin-2(1H)-yl)nicotinonitrile] was tested, and the Ki was 3.8 nM.
